# Assay results taken from US11746116B2, “Antibiotic resistance breakers” (KING'S COLLEGE LONDON, priority 2017, dated 2023).
# Columns and labels:
# SA8 = test: MIC, extended Gram-positive panel; assay type: cell-based, S. aureus
# VRE12201 = test: MIC, microdilution broth method; assay type: cell-based, Enterococcus faecalis; settings: VRE12201; in µg/mL
# SE1 = assay type: cell-based, S. epidermidis
# EF2 = test: MIC, extended Gram-positive panel; assay type: cell-based, E.faecium
# SA10 = test: MIC, extended Gram-positive panel; assay type: cell-based, S. aureus
# MSSA 9144 strain = test: Reserpine (growth) assay for efflux; assay type: cell-based, Staphylococcus aureus; settings: multidrug-resistant MSSA 9144 strain; compound 0.25×MIC, reserpine 10 μg/mL
# EMRSA15 = test: MIC, microdilution broth method; assay type: cell-based, Staphylococcus aureus; settings: EMRSA15; in µg/mL
# PA13437 = test: MIC, microdilution broth method; assay type: cell-based; settings: PA13437
# SA1 = test: MIC, extended Gram-positive panel; assay type: cell-based, S. aureus
# EF1 = test: MIC, extended Gram-positive panel; assay type: cell-based, E.faecalis
# KP13368 = test: MIC, microdilution broth method; assay type: cell-based; settings: KP13368, in µg/mL
# SA5 = assay type: cell-based, S. aureus
# AYE = test: MIC, microdilution broth method; assay type: cell-based, Acinetobacter baumannii; settings: AYE, in µg/mL
# VSE775 = test: MIC, microdilution broth method; assay type: cell-based, Enterococcus faecalis; settings: VSE775; in µg/mL
# SA7 = test: MIC, extended Gram-positive panel; assay type: cell-based, S. aureus
# Ab17978 = test: MIC, microdilution broth method; assay type: cell-based; settings: Ab17978, in µg/mL
# SA9 = assay type: cell-based, S. aureus
# VRE12204 = test: MIC, microdilution broth method; assay type: cell-based, Enterococcus faecium; settings: VRE12204; in µg/mL
# SA2 = test: MIC, extended Gram-positive panel; assay type: cell-based, S. aureus
# M6 = test: MIC, microdilution broth method; assay type: cell-based; settings: M6, in µg/mL
# SA3 = assay type: cell-based, S. aureus
# PA01 = test: MIC, microdilution broth method; assay type: cell-based, Pseudomonas aeruginosa; settings: PA01, in µg/mL
# SA6 = test: MIC, extended Gram-positive panel; assay type: cell-based, S. aureus
# EMRSA16 = test: MIC, microdilution broth method; assay type: cell-based, Staphylococcus aureus; settings: EMRSA16; in µg/mL
# SH1 = test: MIC, extended Gram-positive panel; assay type: cell-based, S. haemolyticus
# SA4 = test: MIC, extended Gram-positive panel; assay type: cell-based, S. aureus
# MSSA9144 = test: MIC, microdilution broth method; assay type: cell-based, Staphylococcus aureus; settings: MSSA9144; in µg/mL
# EMRSA 15 strain = test: Reserpine (growth) assay for efflux; assay type: cell-based, Staphylococcus aureus; settings: multidrug-resistant EMRSA 15 strain; compound 0.25×MIC, reserpine 10 μg/mL
# UKA12 = test: MIC, A. baumannii extended panel; assay type: cell-based
# UKA13 = test: MIC, A. baumannii extended panel; assay type: cell-based
# OXA23.1 = test: MIC, A. baumannii extended panel; assay type: cell-based; settings: A. baumannii OXA23.1
# UKA16 = test: MIC, A. baumannii extended panel; assay type: cell-based
# 13302 = test: MIC, A. baumannii extended panel; assay type: cell-based; settings: A. baumannii 13302
# W1 = test: MIC, A. baumannii extended panel; assay type: cell-based
# A601 = test: MIC, A. baumannii extended panel; assay type: cell-based
# 12156 = test: MIC, A. baumannii extended panel; assay type: cell-based; settings: A. baumannii 12156
# UKA7 = test: MIC, A. baumannii extended panel; assay type: cell-based
# UKA1 = test: MIC, A. baumannii extended panel; assay type: cell-based
smiles,measurement,setting,value
CCn1cc(C(=O)O)c(=O)c2cc(F)c(N3CCN(Cc4cccc5ccccc45)CC3)cc21 [ML-77-021],MIC,"SA8; S. aureus SA8, gyrA, 84:S => L, grlA, 80:S => F",2 µg/mL
same,Fold decrease,"SA8; SA8, MIC of parent (CIP or NOR) versus ARB-linked derivative",64 fold
same,MIC,VRE12201,4
same,Fold decrease,SE1,1-4 fold
same,MIC,SE1; in µg/mL,1
same,MIC,"EF2; E.faecium EF2, in µg/mL",2-4
same,Fold decrease,"EF2; EF2, MIC of parent (CIP or NOR) versus ARB-linked derivative",≥32 fold
same,MIC,"SA10; S. aureus SA10, gyrA, 84:S => L, grlA, 80:S => F",2 µg/mL
same,Fold decrease,"SA10; SA10, MIC of parent (CIP or NOR) versus ARB-linked derivative",64 fold
same,efflux by the strain (reserpine assay),MSSA 9144 strain,not effluxed
same,MIC,EMRSA15,2
same,MIC,PA13437; +PMBN,> 32 µg/mL
same,MIC,PA13437; Normal (no PMBN),> 32 µg/mL
same,MIC,"SA1; S. aureus SA1, gyrA, 84:S => L, grlA, 80:S => F",4 µg/mL
same,Fold decrease,"SA1; SA1, MIC of parent (CIP or NOR) versus ARB-linked derivative",≥32 fold
same,MIC,EF1; E.faecalis EF1,4 µg/mL
same,Fold decrease,"EF1; EF1, MIC of parent (CIP or NOR) versus ARB-linked derivative",≥32 fold
same,MIC,KP13368; +PMBN,4-8
same,MIC,KP13368; Normal (no PMBN),>32
same,Fold decrease,SA5,≥64 fold
same,MIC,SA5,2 µg/mL
same,MIC,AYE; +PMBN,>32
same,MIC,AYE; Normal (no PMBN),>32
same,MIC,VSE775,2
same,MIC,"SA7; S. aureus SA7, gyrA, 84:S => L, grlA, 80:S => F",2 µg/mL
same,Fold decrease,"SA7; SA7, MIC of parent (CIP or NOR) versus ARB-linked derivative",≥64 fold
same,MIC,Ab17978; +PMBN,0.5
same,MIC,Ab17978; Normal (no PMBN),32
same,MIC,"SA9; S. aureus SA9, gyrA, 84:S => L, grlA, 80:S => F",2 µg/mL
same,Fold decrease,"SA9; SA9, MIC of parent (CIP or NOR) versus ARB-linked derivative",≥64 fold
same,MIC,VRE12204,2
same,MIC,SA2; S. aureus SA2,1 µg/mL
same,Fold decrease,"SA2; SA2, MIC of parent (CIP or NOR) versus ARB-linked derivative",8-64 fold
same,MIC,M6; +PMBN,1-4
same,MIC,M6; Normal (no PMBN),32
same,Fold decrease,SA3,32 fold
same,MIC,SA3,2 µg/mL
same,MIC,PA01; +PMBN,0.06-0.25
same,MIC,PA01; Normal (no PMBN),>32
same,MIC,"SA6; S. aureus SA6, gyrA, 84:S => V, grlA, 80:S => F",2 µg/mL
same,Fold decrease,"SA6; SA6, MIC of parent (CIP or NOR) versus ARB-linked derivative",≥64 fold
same,MIC,EMRSA16,2
same,MIC,SH1; S. haemolyticus SH1,4 µg/mL
same,Fold decrease,"SH1; SH1, MIC of parent (CIP or NOR) versus ARB-linked derivative",32 fold
same,MIC,"SA4; S. aureus SA4, gyrA, 84:S => L, grlA, 80:S => F",2 µg/mL
same,Fold decrease,"SA4; SA4, MIC of parent (CIP or NOR) versus ARB-linked derivative",32 fold
same,MIC,MSSA9144,1
same,efflux by the strain (reserpine assay),EMRSA 15 strain,not effluxed
Cl.O=C(O)c1cn(C2CC2)c2cc(N3CCN(Cc4ccc(CO)cc4)CC3)c(F)cc2c1=O [ML-77-158],MIC,UKA12,32 µg/mL
same,MIC,UKA13,32 µg/mL
same,MIC,OXA23.1,64 µg/mL
same,MIC,UKA16,32 µg/mL
same,MIC,13302,64 µg/mL
same,MIC,W1,32 µg/mL
same,MIC,A601,8 µg/mL
same,MIC,12156,0.5 µg/mL
same,MIC,UKA7,64 µg/mL
same,MIC,UKA1,16 µg/mL
"CCn1cc(C(=O)O)c(=O)c2cc(F)c(N3CCNCC3)cc21 [Norfloxacin, norfloxacin, reference compound]",MIC,VRE12201,4
same,efflux by the strain (reserpine assay),MSSA 9144 strain,effluxed
same,MIC,KP13368; Normal (no PMBN),4
same,MIC,VSE775,8
same,MIC,Ab17978; Normal (no PMBN),4
same,MIC,VRE12204,4
same,MIC,M6; Normal (no PMBN),0.25
same,MIC,PA01; Normal (no PMBN),2
same,MIC,MSSA9144,2
same,efflux by the strain (reserpine assay),EMRSA 15 strain,effluxed
